The text below walks through data of ChEMBL document CHEMBL1139505, “Synthesis and structure-activity-relationships of 1H-imidazo[4,5-c]quinolines that induce interferon production” (2005).

The species named for the first test is Homo sapiens. In words: Minimum effective concentration required to induce interferon (IFN) production in human peripheral blood mononuclear cells (hPBMC); NI = no induction at highest concentration (5.0 ug/mL).
Conditions: not given
In kind it is functional.
Regarding `Cc1cccc2nc(N)c3ncn(CC(C)C)c3c12`, the MEC result is “No induction”.
As to `CC(C)Cn1cnc2c(N)nc3ccc(O)cc3c21`, the MEC entry was “No induction”.
Consider `CC(C)Cn1cnc2c(NC(=O)c3ccccc3)nc3ccccc3c21`, for which the MEC result was “No induction”.
As for `CC(C)Cn1cnc2c(N)nc3ccc(N)cc3c21`, the MEC result is “No induction”.
As for `CC(C)(C)n1cnc2c(N)nc3ccccc3c21`, the MEC result is “No induction”.
Consider `CC(C)Cn1cnc2c(N)nc3ccc([N+](=O)[O-])cc3c21`, for which the MEC entry is “No induction”.
Take `CC(C)Cn1cnc2c(O)nc3ccccc3c21`: the MEC result was “No induction”.
With `CC(C)Cn1cnc2cnc3ccccc3c21`, the MEC entry was “No induction”.
`COc1ccc2nc(N)c3ncn(CC(C)C)c3c2c1`: the MEC result is “No induction”.
For the molecule `Nc1nc2ccccc2c2c1ncn2CCCc1ccccc1`, the MEC result was “No induction”.
As for `CNc1nc2ccccc2c2c1ncn2CC(C)C`, the MEC entry was “No induction”.
With `CCCCCCCCn1cnc2c(N)nc3ccccc3c21`, the MEC result is “No induction”.
With `COc1cccc2c1nc(N)c1ncn(CC(C)C)c12`, the MEC result is “No induction”.
With `COc1nc2ccccc2c2c1ncn2CC(C)C`, the MEC entry was “No induction”.
With `CC(C)Cn1c(C(F)(F)F)nc2c(N)nc3ccccc3c21`, the MEC entry was “No induction”.
On to `CC(C)Cn1cnc2c(Cl)nc3ccccc3c21`, for which the MEC entry was “No induction”.
On to `Nc1nc2ccccc2c2c1ncn2-c1ccccc1`, for which the MEC entry was “No induction”.
Regarding `CC(C)Cn1cnc2c(N)nc3ccc(Br)cc3c21`, the MEC entry was “No induction”.
As for `CSc1nc2ccccc2c2c1ncn2CC(C)C`, the MEC entry was “No induction”.
Turning to `CCCCCCCCCCCCCCCCn1cnc2c(N)nc3ccccc3c21`, the MEC entry was “No induction”.
On to `Cc1ccc2nc(N)c3ncn(CC(C)C)c3c2c1`, for which the MEC entry was “No induction”.
The same measure, in the same setting: then `Cc1cccc2c1nc(N)c1ncn(CC(C)C)c12`, with “No induction”; and `CC(C)Cn1c(-c2ccccc2)nc2c(N)nc3ccccc3c21`, with “No induction”; and `CC(C)Cn1cnc2c(N)nc3ccc(Cl)cc3c21`, with “No induction”.
On the same count and under the same terms, the value for `COc1nc2c(N)nc3ccccc3c2n1CC(C)C` was “No induction”; that for `CC(C)Cn1c(Oc2ccccc2)nc2c(N)nc3ccccc3c21` was “No induction”.

Test system in a further test: not listed separately
In words: Minimum effective concentration required to induce interferon (IFN) production in human peripheral blood mononuclear cells (hPBMC). As to conditions: read-out: MEC. In kind it is functional.
In the case of `CCCCCCCn1cnc2c(N)nc3ccccc3c21`, the minimal effective concentration was found to be 0.5 µg/mL.
The same measure, in the same setting: the value for `Cc1nc2c(N)nc3ccccc3c2n1CC(C)C` was 0.05 µg/mL.
As to `CC(C)Cn1c(CCc2ccccc2)nc2c(N)nc3ccccc3c21`, the minimal effective concentration is 1 µg/mL.
As for `CCCCCn1cnc2c(N)nc3ccccc3c21`, the minimal effective concentration is 0.5 µg/mL.
As for `Nc1nc2ccccc2c2c1ncn2CCCCc1ccccc1`, the minimal effective concentration amounted to 0.1 µg/mL.
Regarding `CCCCn1cnc2c(N)nc3ccccc3c21`, the minimal effective concentration was 0.5 µg/mL.
Still for that read-out and setting: then `CC(C)Cn1c(COc2ccccc2)nc2c(N)nc3ccccc3c21`, with 0.1 µg/mL.
In the case of `Cc1ccc2c(c1)nc(N)c1ncn(CC(C)C)c12`, the minimal effective concentration came out at 0.5 µg/mL.
With `CC(C)(O)Cn1cnc2c(N)nc3ccccc3c21`, the minimal effective concentration worked out at 0.5 µg/mL.
For `CCCCc1nc2c(N)nc3ccccc3c2n1-c1ccccc1`, the minimal effective concentration was found to be 0.5 µg/mL.
For `CCCn1cnc2c(N)nc3ccccc3c21`, the minimal effective concentration stood at 0.5 µg/mL.
On the same count and under the same terms, then `CC(C)Cn1c(Cc2ccccc2)nc2c(N)nc3ccccc3c21`, with 0.05 µg/mL; and `Cc1nc2c(N)nc3ccccc3c2n1CC(C)(C)O`, with 0.05 µg/mL.
As for `Nc1nc2ccccc2c2c1ncn2CC(O)CO` (stereo unspecified), the minimal effective concentration was determined as 5 µg/mL.
On to `Cn1cnc2c(N)nc3ccccc3c21`, for which the minimal effective concentration amounted to 0.5 µg/mL.
Regarding `CCc1nc2c(N)nc3ccccc3c2n1CC(C)(C)O`, the minimal effective concentration was found to be 0.05 µg/mL.
`CC(C)Cn1cnc2c(N)nc3ccccc3c21` [IMIQUIMOD]: the minimal effective concentration was determined as 0.5 µg/mL.
With `CCn1cnc2c(N)nc3ccccc3c21`, the minimal effective concentration was determined as 0.5 µg/mL.
Consider `CC(C)Cn1cnc2c(N)nc3c(O)cccc3c21`, for which the minimal effective concentration amounted to 1 µg/mL.
On the same count and under the same terms, the value for `Nc1nc2ccccc2c2c1ncn2CCc1ccccc1` was 0.5 µg/mL; that for `Nc1nc2ccccc2c2c1ncn2Cc1ccccc1` was 0.1 µg/mL.
In the case of `CC(C)Cc1nc2c(N)nc3ccccc3c2n1CC(C)(C)O`, the minimal effective concentration was found to be 0.01 µg/mL.
For `COc1ccc2c(c1)nc(N)c1ncn(CC(C)C)c12`, the minimal effective concentration came out at 1 µg/mL.
On the same count and under the same terms, then `CCCCCCc1nc2c(N)nc3ccccc3c2n1CC(C)C`, with 0.5 µg/mL; and `CCCCc1nc2c(N)nc3ccccc3c2n1CC(C)C`, with 0.01 µg/mL.
As for `CC(C)n1cnc2c(N)nc3ccccc3c21`, the minimal effective concentration amounted to 0.5 µg/mL.
Still for that read-out and setting: the value for `CCCCCCCc1nc2c(N)nc3ccccc3c2n1CC(C)C` was 1 µg/mL; that for `Nc1nc2ccccc2c2c1ncn2CCO` was 0.5 µg/mL.
For the molecule `CCCCCc1nc2c(N)nc3ccccc3c2n1CC(C)C`, the minimal effective concentration was 0.05 µg/mL.
In the case of `CC(O)Cn1cnc2c(N)nc3ccccc3c21` (stereo unspecified), the minimal effective concentration is 0.5 µg/mL.
Consider `CCc1nc2c(N)nc3ccccc3c2n1CC(C)C`, for which the minimal effective concentration stood at 0.05 µg/mL.
On to `Nc1[nH]c2ccccc2c2ncnc1-2`, for which the minimal effective concentration was determined as 0.5 µg/mL.
`CCCc1nc2c(N)nc3ccccc3c2n1CC(C)C`: the minimal effective concentration is 0.05 µg/mL.
Turning to `CC(C)Cn1cnc2c(N)nc3cc(O)ccc3c21`, the minimal effective concentration was determined as 0.5 µg/mL.
For `CCCCCCn1cnc2c(N)nc3ccccc3c21`, the minimal effective concentration was determined as 0.5 µg/mL.
